In brackets after ≈: the same amount, converted by molar mass. Square brackets hold non-standard residues; d marks the D form. Peptide text beside a SMILES is read from it. Bip = N[C@@H](Cc1ccc(-c2ccccc2)cc1)C(=O)O; hPhe = N[C@@H](CCc1ccccc1)C(=O)O; Ahp(2) = CCCCC[C@H](N)C(=O)O; hSer = N[C@@H](CCO)C(=O)O; Dap = NC[C@H](N)C(=O)O
Key:
[1] = tested on: E. coli BW25113; assay type: cell-based, Escherichia coli; conditions: Table 8
Method: (§1) Bacterial growth conditions. LB or Mueller Hinton II cation-adjusted broth (MHB II, BBL 212322) was prepared according to manufacturer's instructions and supplemented with arabinose at 0.02% for overnight growth or at indicated concentrations in the description of the figures. Bacterial cultures were grown at 37° C. When appropriate, media was supplemented with kanamycin (50 μg/mL), carbenicillin (50 μg/mL), chloramphenicol (12.5 or 25 μg/mL), hygromycin (200 μg/mL), and/or gentamicin (10 μg/mL).
(§2) Peptide sensitivity and MIC assays. Lyophilized peptides (Smartox Biotechnology, CPC Scientific. ABclonal) were solubilized to 10 mM in Tris buffer, pH 8, prior to making a 2-fold dilution series in MHBII cation adjusted broth with highest final assay concentration of 400-800 μM. Bacteria were grown to log phase and added to final OD600˜0.001. The final EDTA concentration was 0.5 mM for E. coli strains and 0.125 mM for USA300. The final volume of 10 μL/well in a 384 well black, clear bottom plate (Corning) was spun <1 min at <250×g and then incubated at 37° C. After 4 h, an equal volume (10 μL) of BacTiter-Glo™ (Promega) was added to each well and luminescence was read after 5 min on an EnVision plate reader (PerkinElmer). To measure the minimal inhibitory concentrations (MICs), bacteria from fresh overnight plates or log phase cultures were diluted with or without EDTA and peptides as described above to final OD600˜0.0002. Plates were incubated at 37° C. for 20 h before measuring OD600 with an EnVision plate reader.

[2] = tested on: K. pneumoniae; assay type: cell-based, Klebsiella pneumoniae; conditions: Table 8
Method: as §1, §2

[3] = tested on: A. baumannii; assay type: cell-based, Acinetobacter baumannii; conditions: Table 8
Method: as §1, §2

[4] = tested on: P. aeruginosa; assay type: cell-based, Pseudomonas aeruginosa; conditions: Table 8
Method: as §1, §2

[5] = tested on: E. coli imp4213; assay: MIC assay, E. coli imp4213; assay type: cell-based, Escherichia coli; conditions: Table 7
Method: as §1, §2

[6] = tested on: S. aureus USA300; assay: MIC assay, S. aureus USA300; assay type: cell-based, Staphylococcus aureus; conditions: Table 7
Method: as §1, §2

Compound | MIC E. coli BW25113 [1] [µM] | MIC K. pneumoniae [2] [µM] | MIC A. baumannii [3] [µM] | MIC R. aeruginosa [4] [µM] | MIC E. coli imp4213 [5] [µM] | MIC S. aureus USA300 [6] [µM]
CSCC[C@H](NC(=O)[C@@H]1CCCN1C(=O)[C@H](Cc1ccc(O)cc1)NC(C)=O)C(=O)N[C@@H](CN)C(=O)N[C@@H](Cc1ccccc1)C(=O)N[C@@H](CCCNC(=N)N)C(=O)N[C@@H](CCCNC(=N)N)C(=O)N[C@@H](Cc1ccccc1)C(=O)N[C@@H](CC(C)C)C(=O)N[C@@H](CCC(=O)O)C(=O)N[C@@H](CCCCN)C(=O)N[C@@H](Cc1c[nH]c2ccccc12)C(=O)NCC(=O)N[C@@H](CC(C)C)C(=O)N[C@@H](CC(C)C)C(=O)N[C@@H](CCCNC(=N)N)C(N)=O [compound 69] (Ac-YPM[Dap]FRRFLEKWGLLR-NH2) | 50 (≈ 107 µg/mL) | 100 (≈ 214 µg/mL) | 12.5 (≈ 26.7 µg/mL) | 200 (≈ 428 µg/mL) |  | 
CCCCC[C@H](NC(=O)[C@@H](NC(=O)[C@H](CCSC)NC(=O)[C@@H]1CCCN1C(=O)[C@H](Cc1ccc(O)cc1)NC(C)=O)[C@@H](C)O)C(=O)N[C@@H](CCCNC(=N)N)C(=O)N[C@@H](CCCNC(=N)N)C(=O)N[C@@H](Cc1ccccc1)C(=O)N[C@@H](CC(C)C)C(=O)N[C@@H](CCC(=O)O)C(=O)N[C@@H](CCCCN)C(=O)N[C@@H](Cc1c[nH]c2ccccc12)C(=O)NCC(=O)N[C@@H](CC(C)C)C(=O)N[C@@H](CC(C)C)C(=O)N[C@@H](CCCNC(=N)N)C(N)=O [compound 71] (Ac-YPMT[Ahp(2)]RRFLEKWGLLR-NH2) | 100 (≈ 213 µg/mL) | 50 (≈ 107 µg/mL) | <6.25 | 50 (≈ 107 µg/mL) |  | 
CSCC[C@H](NC(=O)[C@H](CN)NC(=O)[C@H](CCSC)NC(=O)[C@@H]1CCCN1C(=O)[C@H](Cc1ccc(O)cc1)NC(C)=O)C(=O)N[C@@H](CCCNC(=N)N)C(=O)N[C@@H](CCCNC(=N)N)C(=O)N[C@@H](Cc1ccccc1)C(=O)N[C@@H](CC(C)C)C(=O)N[C@@H](CCC(=O)O)C(=O)N[C@@H](CCCCN)C(=O)N[C@@H](Cc1c[nH]c2ccccc12)C(=O)NCC(=O)N[C@@H](CC(C)C)C(=O)N[C@@H](CC(C)C)C(=O)N[C@@H](CCCNC(=N)N)C(N)=O [compound 78] (Ac-YPM[Dap]MRRFLEKWGLLR-NH2) | 12.5 (≈ 26.5 µg/mL) | 25.0 (≈ 53.1 µg/mL) | 25.0 (≈ 53.1 µg/mL) | 100.0 (≈ 212 µg/mL) |  | 
CSCC[C@H](NC(=O)[C@@H]1CCCN1C(=O)[C@H](Cc1ccc(O)cc1)NC(C)=O)C(=O)N[C@@H](CN)C(=O)N[C@@H](C)C(=O)N[C@@H](CCCNC(=N)N)C(=O)N[C@@H](CCCNC(=N)N)C(=O)N[C@@H](Cc1ccc(-c2ccccc2)cc1)C(=O)N[C@@H](CC(C)C)C(=O)N[C@@H](CCC(=O)O)C(=O)N[C@@H](CCCCN)C(=O)N[C@@H](Cc1c[nH]c2ccccc12)C(=O)NCC(=O)N[C@@H](CC(C)C)C(=O)N[C@@H](CC(C)C)C(=O)N[C@@H](CCCNC(=N)N)C(N)=O [compound 80] (Ac-YPM[Dap]ARR[Bip]LEKWGLLR-NH2) | 12.5 (≈ 26.7 µg/mL) | 12.5 (≈ 26.7 µg/mL) | 12.5 (≈ 26.7 µg/mL) | 25.0 (≈ 53.5 µg/mL) |  | 
CSCC[C@H](NC(=O)[C@H](CN)NC(=O)[C@H](CCSC)NC(=O)[C@@H]1CCCN1C(=O)[C@H](Cc1ccc(O)cc1)NC(C)=O)C(=O)N[C@@H](CCCNC(=N)N)C(=O)N[C@@H](CCCNC(=N)N)C(=O)N[C@@H](Cc1ccc(-c2ccccc2)cc1)C(=O)N[C@@H](CC(C)C)C(=O)N[C@@H](CCC(=O)O)C(=O)N[C@@H](CCCCN)C(=O)N[C@@H](Cc1c[nH]c2ccccc12)C(=O)NCC(=O)N[C@@H](CC(C)C)C(=O)N[C@@H](CC(C)C)C(=O)N[C@@H](CCCNC(=N)N)C(N)=O [compound 82] (Ac-YPM[Dap]MRR[Bip]LEKWGLLR-NH2) | 100.0 (≈ 220 µg/mL) | 50.0 (≈ 110 µg/mL) | 12.5 (≈ 27.5 µg/mL) | 50.0 (≈ 110 µg/mL) |  | 
CSCC[C@H](NC(=O)[C@@H]1CCCN1C(=O)[C@H](Cc1ccc(O)cc1)NC(C)=O)C(=O)N[C@H](C(=O)N[C@@H](C)C(=O)N[C@@H](CCCNC(=N)N)C(=O)N[C@@H](CCCNC(=N)N)C(=O)N[C@@H](CCc1ccccc1)C(=O)N[C@@H](CC(C)C)C(=O)N[C@@H](CCC(=O)O)C(=O)N[C@@H](CCCCN)C(=O)N[C@@H](Cc1c[nH]c2ccccc12)C(=O)NCC(=O)N[C@@H](CC(C)C)C(=O)N[C@@H](CC(C)C)C(=O)N[C@@H](CCCNC(=N)N)C(N)=O)[C@@H](C)O [compound 84] (Ac-YPMTARR[hPhe]LEKWGLLR-NH2) | 50.0 (≈ 105 µg/mL) | 50.0 (≈ 105 µg/mL) | 25.0 (≈ 52.3 µg/mL) | 200.0 (≈ 419 µg/mL) |  | 
CSCC[C@H](NC(=O)[C@@H]1CCCN1C(=O)[C@H](Cc1ccc(O)cc1)NC(C)=O)C(=O)N[C@H](C(=O)N[C@@H](C)C(=O)N[C@@H](CCCNC(=N)N)C(=O)N[C@@H](CCCNC(=N)N)C(=O)N[C@@H](Cc1ccccc1)C(=O)N[C@@H](CC(C)C)C(=O)N[C@@H](CCO)C(=O)N[C@@H](CCCCN)C(=O)N[C@@H](Cc1c[nH]c2ccccc12)C(=O)NCC(=O)N[C@@H](CC(C)C)C(=O)N[C@@H](CC(C)C)C(=O)N[C@@H](CCCNC(=N)N)C(N)=O)[C@@H](C)O [compound 85] (Ac-YPMTARRFL[hSer]KWGLLR-NH2) | 200.0 (≈ 410 µg/mL) | 200.0 (≈ 410 µg/mL) | 100.0 (≈ 205 µg/mL) | 200.0 (≈ 410 µg/mL) |  | 
CSCC[C@H](NC(=O)[C@@H]1CCCN1C(=O)[C@H](Cc1ccc(O)cc1)NC(C)=O)C(=O)N[C@@H](CN)C(=O)N[C@@H](C)C(=O)N[C@@H](CCCNC(=N)N)C(=O)N[C@@H](CCCNC(=N)N)C(=O)N[C@@H](Cc1ccccc1)C(=O)N[C@@H](CC(C)C)C(=O)N[C@@H](C)C(=O)N[C@@H](CCCCN)C(=O)N[C@@H](Cc1c[nH]c2ccccc12)C(=O)NCC(=O)N[C@@H](CC(C)C)C(=O)N[C@@H](CC(C)C)C(=O)N[C@@H](CCCNC(=N)N)C(N)=O [compound 86] (Ac-YPM[Dap]ARRFLAKWGLLR-NH2) | 25.0 (≈ 50.1 µg/mL) | 50.0 (≈ 100 µg/mL) | 25.0 (≈ 50.1 µg/mL) | 50.0 (≈ 100 µg/mL) |  | 
Ac-KPMTARRFLEKWGLLR-NH2 [compound 61] |  |  | 40 | 400 | 12.5 | 
Ac-YPMTAKRFLEKHGL-NH2 [compound 30] |  |  |  |  | 800 | >800
Ac-YPMTARAFLEKHGL-NH2 [compound 31] |  |  |  |  | 800 | >800
Ac-YPMTARHFLEKHGL-NH2 [compound 33] |  |  |  |  | 800 | >800
Ac-YPMTARKFLEKHGL-NH2 [compound 32] |  |  |  |  | 100 | >800
Ac-YPMTARRFLAKHGL-NH2 [compound 36] |  |  |  |  | 100 | >800
Ac-YPMTARRFLEAHGL-NH2 [compound 39] |  |  |  |  | 200 | >800
Ac-YPMTARRFLEHHGL-NH2 [compound 40] |  |  |  |  | 400 | >800

Compound | MIC E. coli BW25113 [1] [µM] | MIC K. pneumoniae [2] [µM] | MIC A. baumannii [3] [µM] | MIC R. aeruginosa [4] [µM] | MIC E. coli imp4213 [5] [µM] | MIC S. aureus USA300 [6] [µM]
Ac-YPMTARRFLEKAGL-NH2 [compound 42] |  |  |  |  | 800 | >800
Ac-YPMTARRFLEKHGW-NH2 [compound 47] |  |  |  |  | 200 | >800
Ac-YPMTARRFLEKKGL-NH2 [compound 46] |  |  |  |  | 100 | >800
Ac-YPMTARRFLEKRGL-NH2 [compound 45] |  |  |  |  | 100 | >800
Ac-YPMTARRFLEKWGLLR-NH2 [compound 14] |  |  |  |  | 25 | 800
Ac-YPMTARRFLEKYGL-NH2 [compound 43] |  |  |  |  | 100 | >800
Ac-YPMTARRFLERHGL-NH2 [compound 41] |  |  |  |  | 100 | >800
Ac-YPMTARRFLRKHGL-NH2 [compound 38] |  |  |  |  | 100 | >800
Ac-YPMTARRFLSKHGL-NH2 [compound 37] |  |  |  |  | 400 | >800
Ac-YPMTARRFWEKHGL-NH2 [compound 35] |  |  |  |  | 400 | >800
Ac-YPMTARRWLEKHGL-NH2 [compound 34] |  |  |  |  | 25 | >800
Ac-YPMTRRRFLEKHGL-NH2 [compound 29] |  |  |  |  | 800 | >800
Ac-YPMTWRRFLEKHGL-NH2 [compound 28] |  |  |  |  | 50 | >800
Ac-YPMTYRRFLEKHGL-NH2 [compound 27] |  |  |  |  | 400 | >800
Ac-YPWTARRFLEKHGL-NH2 [compound 24] |  |  |  |  | 400 | >800
